Test results taken from patent publication US6667161B1, “Chromogenic substrates of sialidase of bacterial, viral, protozoa, and vertebrate origin and methods of making and using the same” (Ibbex, Inc., priority 1997, dated 2003).

Legend:
[1] = biological target: purified recombinant bacterial sialidase from Salmonella T. (Salmonella typhimurium, UniProt P29768); assay: Biochemical evaluation of chromogenic substrate with bacterial sialidase; details: substrate ca. 0.7 mM, 30 minutes
[2] = biological target: viral sialidase from whole influenza virus A1PR/8/34 (Influenza A virus, UniProt P03468); assay: Biochemical evaluation of chromogenic substrate with viral sialidase; details: substrate ca. 0.7 mM, 30 minutes
Experimental: Biochemical evaluation for the chromogenic product of viral sialidase substrate compounds. Sialidase can be obtained from, for example, purified recombinant bacterial sialidase from Salmonella T., whole influenza virus, or culture medium containing secreted human sialidase from the 2CFSME cell line. The sialidase preparation is added to a buffer of sodium acetate (0.05 to 0.5 M; pH 5.0-6.0), and the substrate compound is provided at about 0.2-1.0 mM concentration. It should be noted that numerous other examples of buffer solution may be used, including organic acids such as citrate buffers, for example, as well as inorganic buffers, including potassium, sodium, calcium, and other such salts thereof. […] The color change is readily visible. The color change can be quantitated spectrophotometrically by measuring the light absorption of the reaction mixture. […]
E. Biochemical Evaluation of a Chromogenic Substrate Product with Bacterial Sialidase and with Viral Sialidase. […] The reaction progress was quantitated by measuring the light absorption of the reaction mixture. The light absorption was measured with a spectrophotometer at 517 nm with a 1 cm path cell. In the experiment conducted with bacterial sialidase, the absorbance was measured as 2.448. In the experiment conducted with viral sialidase, the absorbance was measured as 1.168. […]

[3] = pH 6.0, 37° C., after addition of sodium hydroxide (pH>11.0)

purified recombinant bacterial sialidase from Salmonella T., sequence (P29768 whole entry): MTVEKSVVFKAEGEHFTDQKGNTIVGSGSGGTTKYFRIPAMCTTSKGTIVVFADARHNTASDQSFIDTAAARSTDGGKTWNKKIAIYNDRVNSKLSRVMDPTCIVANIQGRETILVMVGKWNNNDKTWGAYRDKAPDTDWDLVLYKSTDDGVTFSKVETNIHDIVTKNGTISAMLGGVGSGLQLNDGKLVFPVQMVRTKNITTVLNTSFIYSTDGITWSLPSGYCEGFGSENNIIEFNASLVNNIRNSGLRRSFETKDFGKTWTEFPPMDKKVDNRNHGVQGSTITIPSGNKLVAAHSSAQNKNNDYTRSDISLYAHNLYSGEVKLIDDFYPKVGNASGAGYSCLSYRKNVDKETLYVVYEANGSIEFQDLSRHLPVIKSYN
viral sialidase from whole influenza virus A1PR/8/34, sequence (P03468 whole entry, looked up): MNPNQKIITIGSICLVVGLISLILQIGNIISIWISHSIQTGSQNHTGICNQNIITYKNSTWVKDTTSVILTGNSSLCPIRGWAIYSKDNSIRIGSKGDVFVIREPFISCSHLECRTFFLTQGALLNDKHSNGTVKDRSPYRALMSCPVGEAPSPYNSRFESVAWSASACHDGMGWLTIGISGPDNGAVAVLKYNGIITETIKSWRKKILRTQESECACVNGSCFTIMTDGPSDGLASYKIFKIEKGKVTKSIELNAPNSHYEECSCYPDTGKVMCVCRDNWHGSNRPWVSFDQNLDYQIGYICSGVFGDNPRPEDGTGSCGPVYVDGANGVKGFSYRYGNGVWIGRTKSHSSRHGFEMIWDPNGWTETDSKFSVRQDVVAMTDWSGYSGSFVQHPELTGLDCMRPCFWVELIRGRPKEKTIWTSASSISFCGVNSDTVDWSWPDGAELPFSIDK

## COC(=O)C1(Oc2cc(C)c(C3(c4cc(C(C)C)c(O)cc4C)OC(=O)c4ccccc43)cc2C(C)C)CC(OC)C(NC(C)=O)C([C@H](N)[C@H](O)CO)O1 (stereo partly shown) [Compound 9c]
[1]; 517 nm, 1 cm path cell, potassium acetate 0.5 M pH 6.0, 37° C., then sodium hydroxide 1.0 M
  absorbance (light absorption of the reaction mixture): 2.448
[1]; [3]
  visible color change: color change to blue was readily visible
[2]; 517 nm, 1 cm path cell, potassium acetate 0.5 M pH 6.0, 37° C., then sodium hydroxide 1.0 M, reaction not allowed to proceed to completion
  absorbance (light absorption of the reaction mixture): 1.168
[2]; [3]
  visible color change: color change to blue was readily visible
